From article PMC1991597, “Structure and Reaction Mechanism of Basil Eugenol Synthase” (PLoS ONE, 2007)

How the values were obtained:
[1] = target: T1, eugenol synthase (EGS, EGS1) (Ocimum basilicum, UniProt Q15GI4); assay: X-ray co-crystal structure ([…] Å, soaking); enzyme inhibition kinetics (GC/MS); format: biochemical
[2] = target: T2, eugenol synthase (EGS, EGS1) (Ocimum basilicum, UniProt Q15GI4, K132R); assay: X-ray crystallography (preliminary structural analysis); format: binding
T2 sequence (Q15GI4 1-314 K132R): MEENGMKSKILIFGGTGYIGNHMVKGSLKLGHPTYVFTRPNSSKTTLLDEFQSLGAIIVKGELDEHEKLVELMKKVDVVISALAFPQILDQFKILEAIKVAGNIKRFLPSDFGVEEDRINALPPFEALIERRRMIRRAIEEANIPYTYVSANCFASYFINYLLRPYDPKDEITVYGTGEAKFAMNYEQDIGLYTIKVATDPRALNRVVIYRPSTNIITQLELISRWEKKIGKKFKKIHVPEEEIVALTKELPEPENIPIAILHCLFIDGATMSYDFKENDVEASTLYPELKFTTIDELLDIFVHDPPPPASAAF

[3] = target: T3, eugenol synthase (EGS, EGS1) (Ocimum basilicum, UniProt Q15GI4, K132Q); assay: X-ray co-crystal structure ([…] Å); format: binding
T3 sequence (Q15GI4 1-314 K132Q): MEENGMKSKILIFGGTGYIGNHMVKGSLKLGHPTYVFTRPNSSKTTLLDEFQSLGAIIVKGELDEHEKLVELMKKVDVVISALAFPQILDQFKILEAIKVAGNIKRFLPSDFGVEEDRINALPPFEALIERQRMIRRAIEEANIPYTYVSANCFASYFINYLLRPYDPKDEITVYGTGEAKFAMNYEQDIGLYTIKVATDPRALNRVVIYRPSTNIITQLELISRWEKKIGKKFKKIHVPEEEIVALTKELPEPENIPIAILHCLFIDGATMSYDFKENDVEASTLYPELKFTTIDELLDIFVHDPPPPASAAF

[4] = target: T4, eugenol synthase (EGS, EGS1) (Ocimum basilicum, UniProt Q15GI4, K132A); assay: X-ray crystallography (no deposition stated); format: binding
T4 sequence (Q15GI4 1-314 K132A): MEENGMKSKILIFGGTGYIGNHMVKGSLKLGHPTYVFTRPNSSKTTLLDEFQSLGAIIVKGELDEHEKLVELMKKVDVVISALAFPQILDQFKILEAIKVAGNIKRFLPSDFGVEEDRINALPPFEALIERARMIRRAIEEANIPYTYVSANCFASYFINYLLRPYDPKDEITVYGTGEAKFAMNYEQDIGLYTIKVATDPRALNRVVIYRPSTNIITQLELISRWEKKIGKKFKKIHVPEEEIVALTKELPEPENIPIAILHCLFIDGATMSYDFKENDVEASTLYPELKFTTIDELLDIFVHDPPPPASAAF

[5] = target: T1, eugenol synthase (EGS, EGS1); assay: X-ray crystal structure ([…] Å monoclinic; also 2QX7 orthorhombic); format: binding
[6] = target: T1, eugenol synthase (EGS, EGS1); assay: X-ray crystal structure ([…] Å); format: binding
[7] = substrate: COc1cc(/C=C/COC(C)=O)ccc1O; assay: enzyme kinetics by GC/MS (Km); crystal soaking gave no stable complex; format: biochemical, Ocimum basilicum; conditions: NADPH active site (binding mode modeled only)

CCOC(=O)[C@H]1C[C@@H]1c1ccc(O)c(OC)c1 [EMDF, (1S,2S)-ethyl 2-(4-hydroxy-3-methoxyphenyl) cyclo-propanecarboxylate]
Ki [1]: 800 µM | X-ray crystallography (preliminary structural analysis) [2]: EMDF-bound forms of the Lys132Arg mutant shows that the Arg132 guanidinium moiety is displaced slightly by the EMDF guaiacol ring | X-ray co-crystal structure (1.8 Å) [3]: for the Ala132 and Gln132 mutants, both NADP^+ and EMDF binding are little affected (Figure 5C) | X-ray crystallography (no deposition stated) [4]: Crystallographic analyses confirmed that for the Ala132 and Gln132 mutants, both NADP^+ and EMDF binding are little affected

NC(=O)c1ccc[n+]([C@@H]2O[C@H](COP(=O)(O)OP(=O)(O)OC[C@H]3O[C@@H](n4cnc5c(N)ncnc54)[C@H](OP(=O)(O)O)[C@@H]3O)[C@@H](O)[C@H]2O)c1 [NADP+]
X-ray crystal structure (1.6 Å monoclinic; also 2QX7 orthorhombic) [5]: The structures of EGS complexed with NADP^+ or NADPH provide the first structural characterization of nicotinamide-cofactor binding

NC(=O)C1=CN([C@@H]2O[C@H](COP(=O)(O)OP(=O)(O)OC[C@H]3O[C@@H](n4cnc5c(N)ncnc54)[C@H](OP(=O)(O)O)[C@@H]3O)[C@@H](O)[C@H]2O)C=CC1 [NADPH]
X-ray crystal structure (1.6 Å) [6]: Structural differences between the NADP^+ and NADPH complexes of EGS are small, and center around the nicotinamide ring

B1: eugenol synthase (EGS, EGS1) (Ocimum basilicum) (protein)
chain: MEENGMKSKILIFGGTGYIGNHMVKGSLKLGHPTYVFTRPNSSKTTLLDEFQSLGAIIVKGELDEHEKLVELMKKVDVVISALAFPQILDQFKILEAIKVAGNIKRFLPSDFGVEEDRINALPPFEALIERKRMIRRAIEEANIPYTYVSANCFASYFINYLLRPYDPKDEITVYGTGEAKFAMNYEQDIGLYTIKVATDPRALNRVVIYRPSTNIITQLELISRWEKKIGKKFKKIHVPEEEIVALTKELPEPENIPIAILHCLFIDGATMSYDFKENDVEASTLYPELKFTTIDELLDIFVHDPPPPASAAF
Km [7]: 570 µM
